Laboratory results: patent publication US20180303809A1, “TREATMENT OF BURN PAIN BY TRPV1 MODULATORS” (Purdue Pharma L.P., priority 2013, published 2018)
Several values for one entry are separate records, joined by “and”; a condition that tells them apart may be missing. Equal values may be shown once.

Key:
Assay type in all cases: in vivo, rat
male Sprague-Dawley rats [1] = test: Paw pressure assay, mechanical hyperalgesia (PWT) in thermal burn pain model; conditions: rat burn injury 55° C. 24 s
Method: (§1) Test Animals: Each experiment used male Sprague-Dawley rats weighing between 190-260 g at the time of thermal burn injury. The rats were housed two per cage, and were allowed to acclimate to their environment for at least six days before testing began. The rats had free access to food and water at all times, except during testing and prior to oral (PO) administration of a test compound, when food was removed about 16 hours before dosing. The rats were divided into treatment groups, and one of the following compounds was administered to each group at the dose and by the route of administration indicated in Tables 5.2A to 5.2C, 5.3A and 5.3B, and 5.4A and 5.4B: ketorolac (Sigma-Aldrich, St. Louis, Mo.), AMG 517 (selective TRPV1 antagonist described in Em. Doherty et al., “Novel vanilloid receptor-1 antagonists:2. Structure-activity relationships of 4-oxopyrimidines leading to the selection of a clinical candidate,” J Med Chem 50:3515-3527 (2007).) (Purdue Pharma L. P., Cranbury, N.J.), indomethacin (Alexis Biochemicals, Farmingdale, N.Y.), gabapentin (Bosche Scientific, New Brunswick, N.J.), or (S)-3-chloro-5-(1,2-dihydroxyethyl)-N-(5-(trifluoromethyl)pyridin-2-yl)-5′,6′-dihydro-[2,4′-bipyridine]-1′(2′H)-carboxamide (Compound 1). The control groups were administered the vehicle for the compound of formula (I). The volume of administration for PO treatment was 5 ml/kg, and was the same for all treatment groups. Volume of administration for intraperitoneal (i.p.) drug administration was 2 ml/kg.
(§2) To assess the actions of a compound of formula (I) for the treatment or prevention of burn pain, a model of thermal burn pain was used. A thermal burn injury was induced under isofluorane/O2 inhalation anesthesia. To assess mechanical hyperalgesia and weight bearing, a thermal injury was produced by immersing the left hind paw into water maintained at 55° C. for 24 seconds. The left hind paw of non-injured control animals was immersed in 22° C. water for 24 seconds. To assess thermal hyperalgesia, a thermal injury was produced by immersing the left hindpaw into water maintained at 50° C. for 48 seconds; the left hind-paw of non-injured control animals was immersed in 22° C. water for 48 seconds. The animals were assessed for response to noxious mechanical stimuli by determining PWT for mechanical hyperalgesia, weight bearing difference between the injured or non-injured side, or response to noxious thermal stimuli by determining PWL for thermal hyperalgesia, all as described below, prior to drug administration (baseline), then again at 1, 3 and 5 hours after induction of burn injury.
The paw pressure assay was used to assess mechanical hyperalgesia. For this assay, hind paw withdrawal thresholds (PWT) to a noxious mechanical stimulus were determined using an analgesimeter (Model 7200, commercially available from Ugo Basile of Italy) as described in C. Stein, “Unilateral Inflammation of the Hindpaw in Rats as a Model of Prolonged Noxious Stimulation: Alterations in Behavior and Nociceptive Thresholds,” Pharmacol. Biochem. and Behavior 31:451-455 (1988). The rat's paw was placed on a small platform, and weight was applied in a graded manner up to a maximum of 250 grams. The endpoint was taken as the weight at which the paw was completely withdrawn. PWT was determined once for each rat at each time point, wherein the affected (ipsilateral; same side as the injury) rear paw was tested. […] All drug treatment groups were compared to the vehicle control group (i.e. injured, administered only the vehicle).

male Sprague-Dawley rats [2] = test: Plantar test, thermal hyperalgesia (PWL) in thermal burn pain model; conditions: rat burn injury 50° C. 48 s, 30 mg/kg PO
Method: as §1, §2
The plantar test was used to assess thermal hyperalgesia. For this test, hind paw withdrawal latencies (PWL) to a noxious thermal stimulus were determined using a plantar test apparatus (commercially available from Ugo Basile of Italy) following the technique described by K. Hargreaves et al., “A New and Sensitive Method for Measuring Thermal Nociception in Cutaneous Hyperalgesia,” Pain 32(1):77-88 (1988). The maximum exposure time was set at 32 seconds to avoid tissue damage and any directed paw withdrawal from the heat source is taken as the end point. Three latencies were determined at each time point and averaged.

male Sprague-Dawley rats [3] = test: Hind limb weight bearing (incapacitance meter, % WL) in thermal burn pain model; conditions: rat burn injury 55° C. 24 s
Method: as §1, §2
A commercially available incapacitance meter was used to determine the weight distribution on the two hind paws of the animal (Linton Incapacitance Tester (Linton Instrumentation, Norfolk, UK)). The weight bearing difference (WBD) between the injured and non-injured hindpaw was measured. The animal was placed in the testing chamber that allows the animal to stand normally, distributing its body weight on the hind limbs for the test. Each hind paw was positioned on a separate pressure sensitive pad, which independently measures the pressure applied by each limb. The device continuously collects data after either a force threshold has been exceeded, or the investigator depresses the start pad. Rats were allowed to acclimate when placed on the apparatus, and when they were stationary, the force exerted was then continuously monitored for 3 s. The endpoint was the amount of pressure applied to each limb over time. Three readings were taken for each rat at each time point, and the average used for data analysis. WBD was expressed as “% WL”, i.e. the percentage of weight borne on the burn-injured left hind paw, using the following formula: […]
where WLP is the weight on the left hind paw and WRP is the weight on the right (untreated) hind paw. The 50% value of % WL corresponds to an equal weight distribution across both hind paws. […]

[4] = 30 mg/kg PO, 1 h after administration
[5] = 30 mg/kg PO, 3 h after administration
[6] = 30 mg/kg PO, 5 h after administration
[7] = 30 mg/kg PO, baseline (prior to drug administration)
[8] = 3 mg/kg IP, 1 h after administration
[9] = 3 mg/kg IP, 3 h after administration
[10] = 3 mg/kg IP, 5 h after administration
[11] = 10 mg/kg IP, 1 h after administration
[12] = 10 mg/kg IP, 3 h after administration
[13] = 10 mg/kg IP, 5 h after administration
[14] = 30 mg/kg IP, 1 h after administration
[15] = 30 mg/kg IP, 3 h after administration
[16] = 30 mg/kg IP, 5 h after administration
[17] = 100 mg/kg IP in 0.9% NaCl, 1 h after administration, 100 mg/kg
[18] = 100 mg/kg IP in 0.9% NaCl, 5 h after administration, 100 mg/kg

## CC(=O)Nc1nc2c(Oc3cc(-c4ccc(C(F)(F)F)cc4)ncn3)cccc2s1 [AMG 517]
Male Sprague-Dawley rats [1]; [4]
  % Decrease from Baseline (mean ± S.E.M.) of Paw Withdrawal Threshold: 61 ± 2.3%
  Paw Withdrawal Threshold (g) (mean ± S.E.M.): 94 ± 5.3 g
Male Sprague-Dawley rats [1]; [5]
  % Decrease from Baseline (mean ± S.E.M.) of Paw Withdrawal Threshold: 52 ± 4.3%
  Paw Withdrawal Threshold (g) (mean ± S.E.M.): 115 ± 10.8 g
Male Sprague-Dawley rats [1]; [6]
  % Decrease from Baseline (mean ± S.E.M.) of Paw Withdrawal Threshold: 65 ± 2.9%
  Paw Withdrawal Threshold (g) (mean ± S.E.M.): 86 ± 7.7 g
Male Sprague-Dawley rats [1]; [7]
  Paw Withdrawal Threshold (g) (mean ± S.E.M.): 242 ± 6.0 g
Male Sprague-Dawley rats [2]; 1 h after administration
  % Change from Baseline (mean ± S.E.M.) of Paw Withdrawal Latency: −50.1 ± 25.49%
  Paw Withdrawal Latency (sec) (mean ± S.E.M.): 8.6 ± 0.91 s
Male Sprague-Dawley rats [2]; 3 h after administration
  % Change from Baseline (mean ± S.E.M.) of Paw Withdrawal Latency: −27.1 ± 16.54%
  Paw Withdrawal Latency (sec) (mean ± S.E.M.): 11.8 ± 0.66 s
Male Sprague-Dawley rats [2]; 5 h after administration
  % Change from Baseline (mean ± S.E.M.) of Paw Withdrawal Latency: −24.8 ± 15.95%
  Paw Withdrawal Latency (sec) (mean ± S.E.M.): 12.1 ± 0.60 s
Male Sprague-Dawley rats [2]; baseline (prior to drug administration)
  Paw Withdrawal Latency (sec) (mean ± S.E.M.): 14.4 ± 1.35 s
Male Sprague-Dawley rats [3]; [4]
  % WL (mean ± S.E.M.), percentage of weight borne on the burn-injured left hind paw: 39.2 ± 4.30 %
Male Sprague-Dawley rats [3]; [5]
  % WL (mean ± S.E.M.), percentage of weight borne on the burn-injured left hind paw: 43.1 ± 2.82%
Male Sprague-Dawley rats [3]; [6]
  % WL (mean ± S.E.M.), percentage of weight borne on the burn-injured left hind paw: 43.0 ± 3.37%
Male Sprague-Dawley rats [3]; [7]
  % WL (mean ± S.E.M.), percentage of weight borne on the burn-injured left hind paw: 49.4 ± 0.44%

## NCC1(CC(=O)O)CCCCC1 [Gabapentin, gabapentin]
Male Sprague-Dawley rats [1]; [8]
  % Decrease from Baseline (mean ± S.E.M.) of Paw Withdrawal Threshold: 61 ± 2.1%
  Paw Withdrawal Threshold (g) (mean ± S.E.M.): 90 ± 4.1 g
Male Sprague-Dawley rats [1]; [9]
  % Decrease from Baseline (mean ± S.E.M.) of Paw Withdrawal Threshold: 55 ± 3.7%
  Paw Withdrawal Threshold (g) (mean ± S.E.M.): 102 ± 7.4 g
Male Sprague-Dawley rats [1]; [10]
  % Decrease from Baseline (mean ± S.E.M.) of Paw Withdrawal Threshold: 65 ± 3.0%
  Paw Withdrawal Threshold (g) (mean ± S.E.M.): 81 ± 6.5 g
Male Sprague-Dawley rats [1]; 3 mg/kg IP, baseline (prior to drug administration)
  Paw Withdrawal Threshold (g) (mean ± S.E.M.): 232 ± 10.0 g
Male Sprague-Dawley rats [1]; [11]
  % Decrease from Baseline (mean ± S.E.M.) of Paw Withdrawal Threshold: 47 ± 3.9%
  Paw Withdrawal Threshold (g) (mean ± S.E.M.): 122 ± 9.1 g
Male Sprague-Dawley rats [1]; [12]
  % Decrease from Baseline (mean ± S.E.M.) of Paw Withdrawal Threshold: 43 ± 3.7%
  Paw Withdrawal Threshold (g) (mean ± S.E.M.): 130 ± 8.2 g
Male Sprague-Dawley rats [1]; [13]
  % Decrease from Baseline (mean ± S.E.M.) of Paw Withdrawal Threshold: 57 ± 3.2%
  Paw Withdrawal Threshold (g) (mean ± S.E.M.): 100 ± 8.7 g
Male Sprague-Dawley rats [1]; 10 mg/kg IP, baseline (prior to drug administration)
  Paw Withdrawal Threshold (g) (mean ± S.E.M.): 231 ± 9.7 g
Male Sprague-Dawley rats [1]; [14]
  % Decrease from Baseline (mean ± S.E.M.) of Paw Withdrawal Threshold: 40 ± 2.0 %
  Paw Withdrawal Threshold (g) (mean ± S.E.M.): 144 ± 7.2 g
Male Sprague-Dawley rats [1]; [15]
  % Decrease from Baseline (mean ± S.E.M.) of Paw Withdrawal Threshold: 27 ± 5.1 %
  Paw Withdrawal Threshold (g) (mean ± S.E.M.): 174 ± 14.8 g
Male Sprague-Dawley rats [1]; [16]
  % Decrease from Baseline (mean ± S.E.M.) of Paw Withdrawal Threshold: 56 ± 4.0^ %
  Paw Withdrawal Threshold (g) (mean ± S.E.M.): 105 ± 11.2 g
Male Sprague-Dawley rats [1]; 30 mg/kg IP, baseline (prior to drug administration)
  Paw Withdrawal Threshold (g) (mean ± S.E.M.): 237 ± 7.9 g
Male Sprague-Dawley rats [1]; [17]
  % Decrease from Baseline (mean ± S.E.M.) of Paw Withdrawal Threshold: 37 ± 5.3 % and 23 ± 6.6 % and 41 ± 3.6 %
  Paw Withdrawal Threshold (g) (mean ± S.E.M.): 152 ± 14.1 g and 180 ± 13.7 g and 145 ± 9.8 g
Male Sprague-Dawley rats [1]; [18]
  % Decrease from Baseline (mean ± S.E.M.) of Paw Withdrawal Threshold: 53 ± 6.0^ % and 55 ± 4.6^ % and 56 ± 2.2^ %
  Paw Withdrawal Threshold (g) (mean ± S.E.M.): 112 ± 12.4^ g and 105 ± 9.5 g and 108 ± 5.8^ g
Male Sprague-Dawley rats [1]; 100 mg/kg IP in 0.9% NaCl, baseline (prior to drug administration), 100 mg/kg
  Paw Withdrawal Threshold (g) (mean ± S.E.M.): 239 ± 7.7 g and 237 ± 7.8 g and 246 ± 4.5^ g
Male Sprague-Dawley rats [3]; 100 mg/kg IP in NaCl, 1 h after administration
  % WL (mean ± S.E.M.), percentage of weight borne on the burn-injured left hind paw: 33.6 ± 3.09 %
Male Sprague-Dawley rats [3]; 100 mg/kg IP in NaCl, 3 h after administration
  % WL (mean ± S.E.M.), percentage of weight borne on the burn-injured left hind paw: 44.8 ± 2.58%
Male Sprague-Dawley rats [3]; 100 mg/kg IP in NaCl, 5 h after administration
  % WL (mean ± S.E.M.), percentage of weight borne on the burn-injured left hind paw: 44.0 ± 2.24%
Male Sprague-Dawley rats [3]; 100 mg/kg IP in NaCl, baseline (prior to drug administration)
  % WL (mean ± S.E.M.), percentage of weight borne on the burn-injured left hind paw: 51.1 ± 0.57%
